Reference: US7390630B1, “Method of identifying a compound that selectively inhibits cytokine-stimulated T cell induced production of TNF-alpha by monocytes” (Mathilda and Terence Kennedy Institute of Rheumatology Trust, priority 1999, dated 2008)
“And” between values parts separate entries of the source, which are not always exact repeats. Equal entries are not always repeated. Blank lines part the entries; values can stand above or below the molecule they belong to.

Key:
Format in all cases: cell-based, Human
[1] = system: monocyte TNFα production induced by anti-CD3 antibody stimulated T-cells (Ttcr cells); assay: Ttcr cell-induced TNFα production by monocytes (co-culture, ELISA); details: for IC50: Homo sapiens, Monocyte, T cells:monocytes 5:1, 18 h co-culture, read-out: IC50, inhibition of monocyte TNFα production induced by Ttcr cells
Method: Human peripheral blood T cells and monocytes were isolated from single donor plateletpheresis residues (purchased from the North London Blood Transfusion service, Colindale, GB). Mononuclear cells were isolated by Ficoll/Hypaque centrifugation (specific density 1.077 g/ml, Nycomed Pharma AS, Oslo, Norway), prior to cell separation in a Beckman JE6 elutriator. Elutriation was performed in culture medium containing 1% heat-inactivated foetal calf serum (FCS) using methods known in the art (see Sebbag et al., 1997, Parry et al., 1997). T cell and monocyte purity were assessed by flow cytometry (see Sebbag et al., 1997).
Ttcr cells: Ttcr cells were prepared from elutriation enriched T cells by resuspending the cells at a density of 10^6 cells/ml in RPMI 1640 (containing 10% heat inactivated AB+ human serum (Biowhittaker, UK). Following resuspension, the cells were incubated (at 37° C. in a 5% CO2/95% humidified incubator) in 6-well culture plates with immobilised anti-CD3 monoclonal antibodies for 24 hours (OKT3, ATCC, Maryland, USA), the antibodies having previously been coated on to the 6-well culture plates at 10 μg/ml (overnight at 4° C.).
Following completion of the culture period, the Tck and Ttcr cells were harvested and washed three times in RPMI medium containing 1% heat-inactivated fetal calf serum (FCS), prior to fixation for 1 minute at 0° C. in PBS containing 0.05% glutaraldehyde, and neutralized with an equivalent volume of T lymphocyte neutralizing buffer containing 0.2 M glycine. […]
(§1) Reagents for the TNFα ELISA were provided by Dr. W. Buurman (Rijks Universiteit Limburg, Maastricht, Netherlands). […] The rabbit polyclonal antibody was detected using a peroxidase-conjugated goat anti-rabbit IgG (H+L) (Jackson Immunoresearch Laboratories Inc., Westgrove, PE, USA) followed by an appropriate substrate. […]
(§2) Monocytes were treated with M-CSF for 2 days as described above, infected with adenovirus containing either an insert encoding IκBα (AdvIκBα) or no insert (Adv0). The effect of IκBα over-expression on T cell-induced monocyte (ratio 5:1) TNFα production was then determined.

[2] = system: monocyte TNFα production induced by RA CD3+ enriched cells; assay: Monocyte TNFα production induced by fixed RA synovial CD3+ enriched T cells; details: for TNFα: LY294002 50 μM 30 min, Wortmannin 500 nM 30 min, AKTA 5 mM 30 min, Rapamycin 10 μM 60 min, untreated control 686 ± 59, mean ±SD; for TNFα / Percent change: RA T cells:monocytes 5:1, 18 h; for Percent change: change of TNFα versus untreated control, LY294002 50 μM, Wortmannin 500 nM, Rapamycin 10 μM
Method: (§3) Rheumatoid arthritis (RA) mononuclear cells were obtained from synovial tissue specimens provided by the Rheumatology Clinic, Charing Cross Hospital, London, UK. Tissue was teased into small pieces and digested in medium containing 0.15 mg/ml DNase type 1 (Sigma, UK) and 5 mg/ml collagenase (Roche, UK) for 1 to 2 hours at 37° C. After passing cells through nylon mesh to exclude cell debris, cells were washed and resuspended in RPMI medium (Biohittaker, Verviers, Belgium) (containing 10% heat-inactivated FCS) at a density of 1×10^6 cells/ml and used immediately.
CD3+ enriched cells were isolated from RA synovial mononuclear cells by direct, positive selection using Dynabeads (Dynal UK Ltd, Wirral, UK) coated with anti-CD3 monoclonal antibodies (anti-CD3 mAbs). Briefly, mononuclear cells (1×10^7) were cultured with 100 μl anti-CD3 mAb-coated Dynabeads for 20 minutes at 4° C. under constant rotation. Cells attached to beads were isolated using a magnetic particle concentrator (Dynal, Merseyside, UK) and cultured for 6 hours at 37° C. Detached cells were removed from magnetic beads and washed three times using the magnetic particle concentrator.
This technique allowed for isolation of CD3+ cells, yielding cells of high purity (>99%) and viability (>95%). Following isolation, CD3+ enriched cells were washed three times in RPMI medium containing 1% heat-inactivated FCS, fixed for 1 minute at 0° C. in phosphate-buffered saline (PBS) containing 0.05% glutaraldehyde, and neutralized with an equivalent volume of T lymphocyte neutralizing buffer containing 0.2 M glycine. Following a further three washes, the fixed CD3+ cells were resuspended (at a concentration of 2×10^6 cell/ml) in RPMI medium containing 5% heat-inactivated FCS, and stored for up to 7 days at 4° C. until used. Prior to use, CD3+ enriched cells were washed twice in complete medium.
Monocytes were cultured at 1×10^6 cells/ml in RPMI 1640 medium (containing 5% heat-inactivated FCS) in round-bottomed 96-well culture plates (Nunc Life Technologies Ltd., Paisley, Scotland) in the presence of fixed T cells at varying T-cell/monocyte ratios ranging from 1:1 to 7:1 (as indicated). In some experiments, a semi-permeable membrane insert (Nunc Life Technologies Ltd., Paisley, Scotland) was fitted into the culture wells to physically separate the monocytes from the T cells. In all experiments, efficient fixation of T cells was tested by incubating an aliquot of T-cells (7×10^6 cells/ml) in the absence of monocytes and assaying the amount of TNFα released by the cells under these conditions. Lipopolysaccharide (LPS, 10 ng/ml) was included in experiments as a positive control for monocyte cytokine production.
(§4) Reagents for the TNFα ELISA were provided by Dr. W. Buurman (Rijks Universiteit Limburg, Maastricht, Netherlands). The ELISA was performed using immobilized anti-TNFα mAb 61E71. and developed using a rabbit anti-TNFα polyclonal antibody. An alternative ELISA for TNFα is commercially available from Pharmingen. The rabbit polyclonal antibody was detected using a peroxidase-conjugated goat anti-rabbit IgG (H+L) (Jackson Immunoresearch Laboratories Inc., Westgrove, PE, USA) followed by an appropriate substrate. The sensitivity range of the assay was 1.6 to 5000 pg/ml.
For monocyte/T-cell co-culture experiments, monocytes were cultured with relevant enzyme inhibitors at 37° C. for varying periods of time (see legend to Table 2) prior to co-culture with fixed T-cells for 18 hours. Supernatants were harvested and assayed for presence of TNFα by ELISA. Cell suspensions were taken for determination of cell viability. […]
The effect of wortmannin and LY294002 was also studied on monocyte TNFα production induced by RA CD3+ ve enriched cells (see Table 2). Normal monocytes isolated by elutriation were treated with selective enzyme inhibitors for the designated times prior to co-culture with fixed rheumatoid CD3+ T cells at a ratio 5:1 (T cells to monocytes) for 18 hours. […]

[3] = system: monocyte TNFα production induced by cytokine stimulated T cells (Tck cells); assay: Tck cell-induced TNFα production by monocytes (co-culture, ELISA); details: T cells stimulated with IL-2, IL-6 and TNFα; results not shown
Method: Human peripheral blood T cells and monocytes were isolated from single donor plateletpheresis residues (purchased from the North London Blood Transfusion service, Colindale, GB). Mononuclear cells were isolated by Ficoll/Hypaque centrifugation (specific density 1.077 g/ml, Nycomed Pharma AS, Oslo, Norway), prior to cell separation in a Beckman JE6 elutriator. Elutriation was performed in culture medium containing 1% heat-inactivated foetal calf serum (FCS) using methods known in the art (see Sebbag et al., 1997, Parry et al., 1997). T cell and monocyte purity were assessed by flow cytometry (see Sebbag et al., 1997). […]
as §1, §2

[4] = system: TNFα production in osteoarthritis (OA) synovial cultures; assay: TNFα production in osteoarthritis (OA) synovial cultures; details: 48 h
Method: as §3, with “Osteoarthritis (OA)” for “Rheumatoid arthritis (RA)”, “As in the case of RA cells (above), OA synovial tissue” for “Tissue”, “(BioWhittaker,” for “(Biohittaker,”
as §4
The effect of the PI3 kinase inhibitor, LY294002, was studied on TNFα production in osteoarthritis (OA) synovial cultures. OA synovial joint cultures were cultured for 48 hours in the presence of increasing concentrations of the PI3 kinase inhibitor, LY294002. Culture supernatants were then harvested and assayed for TNFα (pg/ml) by ELISA.

Compound: COC[C@H]1OC(=O)c2coc3c2[C@@]1(C)C1=C(C3=O)[C@@H]2CCC(=O)[C@@]2(C)C[C@H]1OC(C)=O [Wortmannin, wortmannin]
IC50 [1]: 0.05 nM
TNFα [2]: 7333 ± 304 pg/mL
TNFα ([2]; listed as wortmannin): 7333 ± 304 pg/mL
Percent change ([2]; AKTA 5 mM): +968%

Compound: CO[C@H]1C[C@@H]2CC[C@@H](C)[C@@](O)(O2)C(=O)C(=O)N2CCCC[C@H]2C(=O)O[C@H]([C@H](C)C[C@@H]2CC[C@@H](O)[C@H](OC)C2)CC(=O)[C@H](C)/C=C(\C)[C@@H](O)[C@@H](OC)C(=O)[C@H](C)C[C@H](C)/C=C/C=C/C=C/1C [Rapamycin, rapamycin]
effect on monocyte TNFα production induced by anti-CD3 antibody stimulated T cells ([1]; results not shown): no effect
effect on monocyte TNFα production induced by cytokine stimulated T cells [3]: no effect
effect on TNFα production in monocytes stimulated by RA T-cells ([2]; AKTA 5 mM, rapamycin 10 μM, T cells:monocytes 5:1): no significant effect
TNFα [2]: 399 ± 21 pg/mL
Percent change ([2]; AKTA 5 mM): −42%

IC50 [1]: 70 nM
Compound: O=c1cc(N2CCOCC2)oc2c(-c3ccccc3)cccc12 [LY294002]
TNFα [2]: 883 ± 304 pg/mL and 883 ± 38 pg/mL
Percent change ([2]; AKTA 5 mM): +29%
TNFα production ([4]; culture OA 1833, LY 294002 0.005 μM, 0.0 μM: 224 ± 15): 236 ± 11 pg/mL
TNFα production ([4]; culture OA 1833, LY 294002 0.05 μM, 0.0 μM: 224 ± 15): 235 ± 22 pg/mL
TNFα production ([4]; culture OA 1833, LY 294002 0.5 μM, 0.0 μM: 224 ± 15): 233 ± 28 pg/mL
TNFα production ([4]; culture OA 1833, LY 294002 5.0 μM, 0.0 μM: 224 ± 15): 202 ± 15 pg/mL
TNFα production ([4]; culture OA 1833, LY 294002 50.0 μM, 0.0 μM: 224 ± 15): 204 ± 5 pg/mL
TNFα production ([4]; culture OA 1840, LY 294002 0.005 μM, 0.0 μM: 635 ± 19): 612 ± 13 pg/mL
TNFα production ([4]; culture OA 1840, LY 294002 0.05 μM, 0.0 μM: 635 ± 19): 642 ± 32 pg/mL
TNFα production ([4]; culture OA 1840, LY 294002 0.5 μM, 0.0 μM: 635 ± 19): 597 ± 38 pg/mL
TNFα production ([4]; culture OA 1840, LY 294002 5.0 μM, 0.0 μM: 635 ± 19): 651 ± 50 pg/mL
TNFα production ([4]; culture OA 1840, LY 294002 50.0 μM, 0.0 μM: 635 ± 19): 600 ± 31 pg/mL
TNFα production ([4]; culture OA 1851, LY 294002 0.005 μM, 0.0 μM: 227 ± 19): 236 ± 13 pg/mL
TNFα production ([4]; culture OA 1851, LY 294002 0.05 μM, 0.0 μM: 227 ± 19): 250 ± 12 pg/mL
TNFα production ([4]; culture OA 1851, LY 294002 0.5 μM, 0.0 μM: 227 ± 19): 237 ± 63 pg/mL
TNFα production ([4]; culture OA 1851, LY 294002 5.0 μM, 0.0 μM: 227 ± 19): 233 ± 15 pg/mL
TNFα production ([4]; culture OA 1851, LY 294002 50.0 μM, 0.0 μM: 227 ± 19): 246 ± 31 pg/mL
TNFα production ([4]; culture OA 1861, LY 294002 0.005 μM, 0.0 μM: 155 ± 42): 141 ± 33 pg/mL
TNFα production ([4]; culture OA 1861, LY 294002 0.05 μM, 0.0 μM: 155 ± 42): 127 ± 5 pg/mL
TNFα production ([4]; culture OA 1861, LY 294002 0.5 μM, 0.0 μM: 155 ± 42): 145 ± 29 pg/mL
TNFα production ([4]; culture OA 1861, LY 294002 5.0 μM, 0.0 μM: 155 ± 42): 131 ± 44 pg/mL
TNFα production ([4]; culture OA 1861, LY 294002 50.0 μM, 0.0 μM: 155 ± 42): 215 ± 9 pg/mL
TNFα production ([4]; culture OA 1862, LY 294002 0.005 μM, 0.0 μM: 141 ± 35): 166 ± 31 pg/mL
TNFα production ([4]; culture OA 1862, LY 294002 0.05 μM, 0.0 μM: 141 ± 35): 171 ± 55 pg/mL
TNFα production ([4]; culture OA 1862, LY 294002 0.5 μM, 0.0 μM: 141 ± 35): 185 ± 7 pg/mL
TNFα production ([4]; culture OA 1862, LY 294002 5.0 μM, 0.0 μM: 141 ± 35): 226 ± 100 pg/mL
TNFα production ([4]; culture OA 1862, LY 294002 50.0 μM, 0.0 μM: 141 ± 35): 205 ± 19 pg/mL
effect on TNFα production in cultures of OA synovial tissue ([4]; varying concentrations, five different samples): no significant effect
